# How the values were obtained:
# [1] = tested on: pancreatic cancer; conditions: Ludwig et al.; cited from earlier work
# [2] = tested on: orthotopic KPC-Luc pancreatic tumors; test: Orthotopic KPC-Luc pancreatic cancer model treated with MRTX1133; format: in vivo, mouse; conditions: for tumor weight: 25 mg/kg twice daily for ten days, weighed seven days after completion, FIG. 10
# Method: (§1) For sub-cutaneous xenograft studies, the C57BL/6 female or male mice aged 5-7 weeks (Jackson Labs) were used. 1×10^6 KPC-Luc cells or 2×10^5 B16F10 melanoma cells were injected into the dorsal region of the wild type (WT) or HPK1-mice. Animals were imaged using the IVIS Spectrum, PerkinElmer and Bruker ICON MRI at 3 and 10 days after successful implantation of KPC-Luc cells. Only mice with similar tumor volume (~150 mm^3) were used for treatment studies. These experiments were randomized. […] Mice were euthanized for tumor collection once tumor volume was approximately ~1000 mm^3. For orthotopic studies, 0.5×10^6 KPC-Luc cells were implanted orthotopically into WT C57BL/6 mice and/or HPK1^−/− mice pancreas. Bioluminescence imaging with the IVIS Spectrum (Perkin Elmer) was performed after intraperitoneal injection of 1.5 mg of D-luciferin (PerkinElmer). After image acquisition, the Living Image 4.7 software (PerkinElmer) was used for analysis of images. Therapy was initiated at day 10 post tumor cell injection. All mice were sacrificed on Day 35 for survival study or otherwise labeled in the Figures.
# (§2) To examine the effects of pharmacological inhibition of Axl, Kras, and HPK1 with or without Anti-41BB/CD137 on tumor growth, Axl inhibitor (Bemcentinib MedChem Express) was dosed at 10 mg/kg/day for intraperitoneal injection (IP). HPK1-IN-7 (HPK1 inhibitor #1 MedChem Express) was dosed at 20 mg/kg/day orally, GNE1858 (HPK1 inhibitor #2 MedChem Express) was dosed at 10 mg/kg/day orally. KRAS^G12D inhibitor (MRTX1133, MedChem Express) was dosed at 25 mg/Kg twice daily for intraperitoneal injection. Anti-41BB (clone LOB12.3, BioXCell, BE0169) antibody and its corresponding isotype IgG controls were intraperitoneally administered at 200 μg per injection for three times per week. The duration of treatment was 10 days. Tumor size was measured every other day using the methods as previously described.
# To further evaluate the association, tumor size was determined in mice treated with MRTX1133. […]
# [3] = tested on: mouse PDAC models; conditions: cited from earlier work
# [4] = tested on: orthotopic xenograft tumors of KPC-Luc cells; test: IVIS bioluminescence imaging of orthotopic KPC-Luc xenograft tumors treated with Axl inhibitor; format: in vivo, mouse; conditions: imaged 17 days post implantation with KPC-Luc cells
# Method: as §1, with “All mice were sacrificed on Day 35 for survival study or otherwise labeled in the Figures.” left out
# To examine the effects of pharmacological inhibition of Axl, Kras, and HPK1 with or without Anti-41BB/CD137 on tumor growth, Axl inhibitor (Bemcentinib MedChem Express) was dosed at 10 mg/kg/day for intraperitoneal injection (IP). […] Tumor size was measured every other day using the methods as previously described. […]
# [5] = tested on: orthotopic xenograft tumors of KPC-Luc cells; test: Multicolor flow cytometry of intra-tumoral hematopoietic cells from KPC-Luc xenograft tumors; format: in vivo, mouse
# Method: For flow cytometry studies, orthotopic xenograft tumors of KPC-Luc cells from the HPK1−/− or wild type control were digested in digestion buffer (1 mg/mL collagenase IV and 10 U/mL DNase I in Dulbecco's Modified Eagle Medium (DMEM)) at 37° C. for 30 minutes. After thorough mixing, the samples were pushed through a 70-μm cell strainer and washed with 40 ml DMEM without fetal bovine serum (FBS), The digested cells were re-suspended in 37 % Percoll and overlaid on top of the same volume of 70% Percoll. After centrifugation at 800 g for 20 minutes with break off, the lymphocytes were isolated from the interface and rinsed with PBS. The cells were first stained by Zombie UV, followed by incubation in a cocktail comprising the following antibodies in cell staining buffer: anti-CD45, anti-CD38, anti-B220, anti-CD11b, anti-F4/80, anti-Ly6C, anti-Ly6G, anti-CD4, anti-IA/IE, and anti-CD8g. After washing, the stained cells were submitted for multiple-color flow cytometry. The results were processed using FlowJo software.
# Following tumor xenograft imaging, the tumors were excised from the mice and subsequently prepared for flow cytometry as described above.
# [6] = tested on: KPC-Luc cells; test: KPC-Luc tumor growth in WT C57BL/6 mice under Axl inhibitor, HPK1 inhibitor, CD137 antibody and combinations; format: in vivo, mouse; conditions: treated 10 days
# Method: as §1
# To examine the effects of pharmacological inhibition of Axl, Kras, and HPK1 with or without Anti-41BB/CD137 on tumor growth, Axl inhibitor (Bemcentinib MedChem Express) was dosed at 10 mg/kg/day for intraperitoneal injection (IP). HPK1-IN-7 (HPK1 inhibitor #1 MedChem Express) was dosed at 20 mg/kg/day orally, GNE1858 (HPK1 inhibitor #2 MedChem Express) was dosed at 10 mg/kg/day orally. […] Tumor size was measured every other day using the methods as previously described.
# Tumors were grown in wild-type mice, and treatment was performed as described above. Following treatment, tumors were excised from the mice and both tumor volume and tumor weight were measured.
# To further study the synergistic effects of the combination therapy, tumors were grown in wild-type mice and treatment was performed as described above. Following treatment, tumors were excised from the mice and tumor weight was evaluated. […]
# [7] = tested on: B16F10 melanoma cells; test: Subcutaneous B16F10 melanoma xenograft model; format: in vivo, mouse; conditions: for tumor weight: FIG. 12B
# Method: as §1, §2
# To evaluate the therapeutic effect of an Axl inhibitor, bemcentinib, on melanoma, subcutaneous tumors of subcutaneous melanoma xenograft model of B16F10 cells in HPK1 knockout mice and wild type mice were treated with 10 mg/kg/day bemcentinib by intraperitoneal injection (IP) twice daily for 10 days. The tumor volumes (FIG. 12A) and tumor weight (FIG. 12B) were measured at 12 days after the completion of treatment.
# Subcutaneous melanoma xenograft tumors of B16F10 cells were grown in wild-type mice, and treatment was performed as described above. Following treatment, tumors were excised from the mice at day 12 after completion of therapy and both tumor volume and tumor weight were measured.
smiles,measurement,setting,value
Nc1nc(Nc2ccc3c(c2)CC[C@@H](N2CCCC2)CC3)nn1-c1cc2c(nn1)-c1ccccc1CCC2 [BGB324],aggressiveness of pancreatic cancer,[1],inhibits the aggressiveness of pancreatic cancer
same,sensitivity of pancreatic cancer cells to gemcitabine,[1],sensitizes pancreatic cancer cells to gemcitabine
same,tumor immune microenvironment,[1],induces an immune stimulatory microenvironment
C#Cc1c(F)ccc2cc(O)cc(-c3ncc4c(N5CC6CCC(C5)N6)nc(OC[C@@]56CCCN5C[C@H](F)C6)nc4c3F)c12 [MRTX1133],tumor weight,[2]; HPK1 knockout mice,significant decrease in tumor weight
same,tumor weight,[2]; wild type mice,slight decrease in tumor weight
same,response of tumor size shown by luminescence,"[2]; wild-type mice versus HPK1 knockout mice, 25 mg/kg IP twice daily, imaged 7 days after treatment, FIG. 9",less responsive than the HPK1 knockout mice
same,tumor growth,[3],shrink tumors or halt the growth
Nc1nc(Nc2ccc3c(c2)CC[C@@H](N2CCCC2)CC3)nn1-c1cc2c(nn1)-c1ccccc1CCC2 [bemcentinib],tumor growth (luminescence),"[4]; HPK1 knockout mice, FIG. 3B",inhibited the growth of the tumor
same,tumor volume (luminescence),"[4]; wild type mice, FIG. 3A",little to no decrease in the tumor volume
same,CD3+ T cells and CD8+ T cells in the tumor microenvironment,"[5]; HPK1 knockout mice, FIG. 4B",increased
same,infiltration of macrophages and myeloid suppressor cells,"[5]; HPK1 knockout mice, tumor microenvironment, FIG. 4B",decreased the infiltration
same,"number or function of B cells, CD3+ cells, CD4+ T cells, CD8+ T cells, CD11b+ cells, M-MDSC's, PMN-MDSC's, macrophages, neutrophils","[5]; wild-type mice, intra-tumoral, FIG. 4A",did not increase or decrease
same,tumor volume,"[6]; measured 15 days after completion of treatment, FIG. 6A",did not significantly decrease
same,tumor weight compared to control (in words),"[6]; weighed 12 days after completion, control about 0.6 grams, FIG. 7",only minimally reduced
same,tumor weight compared to control,"[6]; weighed 15 days after completion of treatment, FIG. 6B",reduced the tumor weight to a small degree
same,tumor volume,"[7]; HPK1 knockout mice, 10 mg/kg/day IP for 10 days, 12 days after completion, FIG. 12A",significant decrease
same,tumor weight,"[7]; HPK1 knockout mice, 10 mg/kg/day IP for 10 days, 12 days after completion",significant decrease
same,tumor volume,"[7]; wild type mice, 10 mg/kg/day IP for 10 days, 12 days after completion, FIG. 12A",slight decrease
same,tumor weight,"[7]; wild type mice, 10 mg/kg/day IP for 10 days, 12 days after completion",slight decrease
same,tumor volume,"[7]; wild-type mice, inhibitor comparison, treated 10 days, day 12 after completion, FIG. 13A",did not significantly decrease
same,tumor weight compared to control,"[7]; wild-type mice, inhibitor comparison, treated 10 days, day 12 after completion, FIG. 13B",reduced the tumor weight to a small degree
